Where only a bound is given, the exact number is not on record here.

The subject of experiment [1] is MLN4924 resistant HCT-116 cell clones. In words: Cell viability assay, 96 hours ATPlite, resistant clones. The note with it: Homo sapiens; four HCT-116 resistant clones. The format is cell-based. As for the experimental part: HCT-116 cells and resistant clones were treated with DMSO or various concentrations of FIG. 7A. bortezomib, FIG. 7B. doxorubicin or FIG. 7C. SN-38 for 96 hours and cell viability was assessed with ATPlite assay.
(§1) Cell line cultures were maintained using appropriate cell culture media as recommended by ATCC and as previously reported (Soucy et al., 2009, Milhollen et al., 2010). […] Cell viability assays completed using 96 hours ATPlite assay (PerkinElmer) as previously reported (Soucy et al., 2009).
(ATP-based viability assays read luminescence as a measure of living cells.)

Experiment [2] relates to MLN4924 resistant NCI-H460 clones. The experiment is described as above. The format is cell-based. As to conditions: Homo sapiens; two NCI-H460 resistant clones. The protocol: (§2) FIG. 6A. Calu-6 and FIG. 6B.
as §1

For experiment [3], the system named is MLN4924 resistant Calu-6 clone. Briefly: Cell viability assay, 96 hours ATPlite, resistant clone. It is filed as cell-based. As to conditions: Homo sapiens; one Calu-6 resistant clone. As for the experimental part:
as §2, §1

In experiment [4] the test system is HCT-116 WT, HCT-116.1 A171T and HCT-116.4 C324Y cells. In words: Drug efflux inhibitor co-incubation, ATPlite viability assay. The format is cell-based. As to conditions: efflux inhibitors at highest non toxic concentration, 96 hours. The protocol: Treatment of cells with efflux inhibitors. FIG. 8A. […] Co-incubation studies were performed with various inhibitors of drug efflux at their highest non toxic concentration.
Diypridamole (Sigma), MK571 (Tocris), GF918, K0143 (Tocris) and LY5979 were obtained from commercial sources indicated.

In another experiment the target is T1, A573D UBA6 (Homo sapiens, UniProt A0AVT1, A573D).
T1 construct: His6 (N); made in house; host or cells: Sf9 insect cells (baculovirus, single infection)
T1 sequence (A0AVT1 whole entry A573D): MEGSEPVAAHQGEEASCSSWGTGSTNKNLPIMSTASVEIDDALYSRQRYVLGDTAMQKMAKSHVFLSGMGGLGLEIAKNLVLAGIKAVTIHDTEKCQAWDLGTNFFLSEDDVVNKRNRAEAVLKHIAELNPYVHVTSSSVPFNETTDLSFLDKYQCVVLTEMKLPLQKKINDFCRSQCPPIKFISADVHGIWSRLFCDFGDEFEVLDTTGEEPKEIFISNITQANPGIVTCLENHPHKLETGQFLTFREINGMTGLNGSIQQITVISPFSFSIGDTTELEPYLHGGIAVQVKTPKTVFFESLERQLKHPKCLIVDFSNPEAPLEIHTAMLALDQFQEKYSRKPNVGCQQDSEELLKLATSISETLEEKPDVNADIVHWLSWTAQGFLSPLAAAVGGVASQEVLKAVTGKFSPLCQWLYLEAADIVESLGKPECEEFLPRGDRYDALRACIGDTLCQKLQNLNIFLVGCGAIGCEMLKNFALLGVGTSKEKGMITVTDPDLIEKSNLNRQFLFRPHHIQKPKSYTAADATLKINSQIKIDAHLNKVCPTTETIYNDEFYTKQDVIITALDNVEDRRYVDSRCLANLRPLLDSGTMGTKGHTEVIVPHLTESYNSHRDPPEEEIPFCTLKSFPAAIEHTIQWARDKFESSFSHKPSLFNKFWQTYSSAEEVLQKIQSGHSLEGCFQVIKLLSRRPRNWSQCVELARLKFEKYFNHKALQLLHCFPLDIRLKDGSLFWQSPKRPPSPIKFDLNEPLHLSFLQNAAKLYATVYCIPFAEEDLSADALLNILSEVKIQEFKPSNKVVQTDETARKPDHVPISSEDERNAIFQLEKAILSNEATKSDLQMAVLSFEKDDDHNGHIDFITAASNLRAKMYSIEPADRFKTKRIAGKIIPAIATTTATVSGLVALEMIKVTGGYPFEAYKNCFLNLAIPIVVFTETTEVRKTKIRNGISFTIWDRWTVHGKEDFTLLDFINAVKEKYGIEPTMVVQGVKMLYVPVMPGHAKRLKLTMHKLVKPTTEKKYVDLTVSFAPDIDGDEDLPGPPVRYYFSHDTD
In words: UBA6 pyrophosphate exchange assay. As to conditions: A573D UBA6 5 nM, 1 mM ATP, 4 μM ubiquitin. It is filed as biochemical. The protocol:
(§3) ATP and PPi titrations were run under similar condition, except ubiquitin was fixed at 4 μM. […] ATP standard curve.
(§4) Reactions were initiated with addition of 4 μM ubiquitin.

The next experiment addresses T2, A573T UBA6 (Homo sapiens, UniProt A0AVT1, A573T).
T2 construct: His6 (N); made in house; host or cells: Sf9 insect cells (baculovirus, single infection)
In words: UBA6 pyrophosphate exchange assay. The format is biochemical. The note with it: A573T UBA6 5 nM, 1 mM ATP, 4 μM ubiquitin. The protocol: as §3, §4

The target of a further experiment is T3, wild-type UBA6 (Homo sapiens, UniProt A0AVT1).
T3 construct: His6 (N); made in house; host or cells: Sf9 insect cells (baculovirus, single infection)
T3 sequence (A0AVT1 whole entry): as the sequence (A0AVT1 whole entry A573D) above, with D573A counted along it
In words: UBA6 pyrophosphate exchange assay. It is filed as biochemical. The note with it: wt UBA6 5 nM, 1 mM ATP, 4 μM ubiquitin, 60 minutes at 30° C. The protocol: as §3, §4

Experiment [5] has as its system NEDD8 pathway (NEDD8-cullin, NEDD8-NAEβ, NEDD8-Ubc12, CDT1, NRF2). Briefly: Western blot pathway analysis of treated cells. It is filed as cell-based. The protocol:
Whole cell extracts were prepared and immunoblotting assays performed as previously described (Soucy, 2009) with primary antibodies as follows: CDT1, NRF2, NEDD8, NAEβ, UBC12 and 4924-NEDD8-ADS (MIL22) (Millennium); UBC10 (Boston Biochem); K48 (Millipore); NAE1 (sigma) and tubulin (Santa Cruz). Secondary Alexa-680-labelled antibodies to rabbit/mouse IgG (Molecular Probes) were used as appropriate and blots were imaged using the Li-Cor Odyssey Infared Imaging system.
The reduced effect on NAE inhibition was confirmed by a reduced accumulation of two CRL substrates, Nrf2 and Cdt1.
For orientation: In western blotting, separated proteins are transferred to a membrane and probed.

Experiment [6] concerns OCI-Ly10 DLBCL xenografts. Briefly: Antitumor study, subcutaneous xenografts in CB-17 SCID mice. The note with it: 90 mg/kg BID bi-weekly. It is filed as in vivo, mouse. The protocol: (§5) Female NCr Nude rats (Taconic Farms) aged 6-8 weeks were inoculated with 10×10^6 HCT-116 cells subcutaneously in the right flank. Tumor growth was measured using digital vernier calipers. […] Rats received one dose per day biweekly for 2 weeks (days 1, 4, 8, and 11) of a 21-day therapy cycle. After three cycles of treatment refractory tumors were collected. Female CB-17 SCID mice (Charles River Laboratories) aged 6-8 weeks were inoculated with 2×10^6 THP-1 or OCI-Ly10 cells with Matrigel™ support (1:1, v/v). […] Mice received two doses per day bi-weekly (days 1, 4, 8, 11, 15, 18, 22 . . . ) until tumors reached approximately 500-800 mm^3. Tumors were then collected and one 40-50 mg piece of tumor was subcutaneously implanted using a 13 gauge trocar needle into 6 to 8 naïve animals for further study. In addition tumor DNA was extracted for mutational analysis as described in supplementary information.

Another experiment concerns THP-1 AML xenografts. The description is as above. It is filed as in vivo, mouse. The note with it: THP-1 xenografts, 90 mg/kg BID, biweekly. As for the experimental part:
as §5

The next experiment has as its system A171T THP-1 xenografts. Briefly: Antitumor study, re-established resistant xenograft in SCID mice. The format is in vivo, mouse. The note with it: A171T THP-1 xenograft, 90 mg/kg BID bi-weekly. As for the experimental part: as §5
The subcutaneous model was utilized to facilitate harvesting tumors for subsequent analysis. […] Three THP-1 xenografts contained a heterozygous mutation in NAEB at A171T, one contained a heterozygous mutation in at N209D and the remaining two were wild type for NAEB and so may be refractory through an alternate mechanism (FIG. 14A and Table 6).

The test system of experiment [7] is NEDD8-cullin levels in A171T THP-1 xenografts. In words: Pharmacodynamic marker analysis in tumor xenografts. It is filed as in vivo, mouse. As to conditions: single dose 90 mg/kg. The text has this: The relative levels of NEDD8-cullin and pIxBa were estimated by quantitative immunoblot analysis (Li-cor Odyssey system) using Alexa680-labelled anti-IgG (Molecular Probes) as the secondary antibody. For the analysis of CDT1 and cleaved caspase-3 levels in tumor sections, formalin-fixed, paraffin-embedded tumour sections were stained with the relevant antibodies, amplified with HRP-labelled secondary antibodies and detected with the ChromoMap DAB Kit (Ventana Medical Systems). Slides were counterstained with haematoxylin. Images were captured using an Eclipse E800 microscope (Nikon Instruments) and Retiga EXi colour digital camera (QImaging) and processed using Metamorph software (Molecular Devices). CDT1 and cleaved caspase-3 are expressed as a function of the DAB signal area.

Experiment [8] concerns E204G OCI-Ly10 xenografts. Briefly: Antitumor study, re-implanted resistant xenograft in SCID mice. As to conditions: re-implanted E204G OCI-Ly10 tumor, 90 mg/kg BID. It is filed as in vivo, mouse. As for the experimental part:
as §5

T2 sequence (A0AVT1 whole entry A573T): as the sequence (A0AVT1 whole entry A573D) above, with D573T counted along it

Turning to `NS(=O)(=O)OC[C@@H]1C[C@@H](n2ccc3c(N[C@H]4CCc5ccccc54)ncnc32)C[C@@H]1O` [MLN4924, ((1S,2S,4R)-4-{4-[(1S)-2,3-dihydro-1H-inden-1-ylamino]-7H-pyrrolo[2,3-d]pyrimidin-7-yl}-2-hydroxycyclopentyl)methyl sulphamate], the EC50 in [1], in experiment [2] and in experiment [3] was over 10 µM throughout. Moreover, the “MLN4924 activity on co-incubation with drug efflux inhibitors” value in [4] is “unaffected”. Further, the values for the IC50 against A573D UBA6, on A573T UBA6 and on wild-type UBA6 were over 100 µM, over 100 µM and 6.2 ± 0.8 µM, respectively. The “inhibition of NEDD8 conjugation to NAEB, UBC12 and the cullin proteins” value in [5] (HCT-116 A171T and G201V clones compared to WT cells) was “reduced effect of inhibition”. Also, in experiment [5] (NCI-H460 A171D and Calu-6 N209K clones), the “effect on the neddylation pathway and CRL substrate accumulation” value is given as “reduced potency”. In addition, the antitumor effect entry in experiment [6] is given as “tumor regressions”; in the experiment on THP-1 AML xenografts it was “uniform tumor regressions”; in the experiment on A171T THP-1 xenografts, “resistant”; in experiment [8], “resistant”. In addition, in experiment [7], the “inhibition of NEDD8-cullin levels” value is listed as “minimal inhibition”.

The values are drawn from patent US20170107579A1, “E1 ENZYME MUTANTS AND USES THEREOF” (Millennium Pharmaceuticals, Inc., priority 2011, published 2017).
